Data: patent US9487462B2, “Inhibitors of matrix metalloproteinases” (PharmaHungary 2000 Kft., priority 2010, dated 2016)
Entries after “also recorded” stand apart in the source; their conditions may differ. Where two headings read alike, the source gives them in different places.

Tests used:
[1] = molecular target: MMP2 (Homo sapiens, UniProt P08253); experiment: MMP activity assay (fluorogenic substrate), MMP2 catalytic domain; assay type: biochemical
[2] = Cytotoxicity, alamarBlue viability, MRC-5; assay type: cell-based; settings: human, MRC-5 fibroblast cells, 48 hours incubation, read-out: MRC-5 LC50
In short: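 Cells exposed to compound dilutions for 48 hours, then alamarBlue added for 4 hours; fluorescence read at ex 540/em 590 nm. IC50 from six concentrations run in duplicate.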

[3] = molecular target: MMP1 (Homo sapiens (Human), UniProt P03956); experiment: In vitro zymography assay (casein), MMP-1; assay type: biochemical; settings: % ± SD
Experimental: (§1) MMP-2 and MMP-9 enzymes were isolated from rat hearts and from rat spleen while human, recombinant MMP-1 and MMP-13 enzymes used were commercial. MMP-2, -9, -13 enzymes were separated by electrophoresis during non-reducing conditions on 8% SDS-polyacrylamide gels copolymerized with 2 mg/ml gelatin from porcine skin (Sigma Aldrich) while MMP-1 was separated under the same conditions on 8% SDS-polyacrylamide gels copolymerized with 2 mg/ml casein (Sigma Aldrich). […] In case of MMP-13 p-aminophenylmercuric acetate (APMA) was used for enzyme activation at 37° C. for 30 min. After electrophoresis, gels were washed in 2.5% Triton-X 100 with agitation and then incubated for 20 hrs at 37° C. in enzyme incubation buffer (50 mM Tris-HCl, pH 7.5, containing 5 mM CaCl2, 200 mM NaCl) with or without MMP inhibitor. Zymographic gels were stained in Coomassie Brilliant Blue R-250 and de-stained. Gelatin and casein zymograms were scanned. MMP activity is detected as a white zone on a blue background and the clear bands in the gel can be quantified by densitometry. The obtained density values were measured and % inhibition values calculated (Kupai et al., 2010). The table below summarizes the prescreen inhibition values determined for different MMP inhibitors on MMP1, -2, -9, -13.

[4] = molecular target: MMP-9 (Rattus norvegicus (Rat), UniProt P50282); experiment: In vitro zymography assay (gelatin), MMP-9; assay type: biochemical; settings: % ± SD
Experimental: as §1

[5] = molecular target: MMP13 (Homo sapiens (Human), UniProt P45452); experiment: In vitro zymography assay (gelatin), MMP-13; assay type: biochemical; settings: % ± SD
Experimental: as §1

[6] = tested on: isolated rat hearts; experiment: Myocardial ischemia/reperfusion injury in isolated rat hearts (Langendorff), infarct size; assay type: ex vivo
Experimental: Male Wistar rats were anesthetized with diethyl ether, heparin (500 U/kg i.v.) was administered and hearts were isolated. The hearts were assigned to three groups: (i) DMSO control and (ii) Compound 1 (1 μM) and (iii) Compound 1 (10 μM) treated. Stock solution of inhibitors was prepared in DMSO. The final DMSO concentration in all assays was 0.1%. Hearts were perfused in Langendorff mode with constant pressure (100 H2O cm) for 20 min at 37° C. then exposed to global ischemia for 30 min followed by 120 min of reperfusion. The DMSO and inhibitors were dissolved in Krebs-Henseleit buffer and administered only before onset of ischemia for 20 min (pretreatment) and during the first 30 min of reperfusion (FIG. 6). At the end of reperfusion, infarct size (IS) was defined by triphenyltetrazolium chloride staining (Csonka et al., 2010).
In separate experiments hearts were perfused to test cardioprotective effect of ALBH-know compound at 5 μM final concentration. The same protocol was used as mentioned above.

[7] = read-out: % inhibition MMP-1 (52 kDa)
[8] = read-out: % inhibition MMP-1 (55 kDa)

Sequence of MMP1 (P03956 100-469): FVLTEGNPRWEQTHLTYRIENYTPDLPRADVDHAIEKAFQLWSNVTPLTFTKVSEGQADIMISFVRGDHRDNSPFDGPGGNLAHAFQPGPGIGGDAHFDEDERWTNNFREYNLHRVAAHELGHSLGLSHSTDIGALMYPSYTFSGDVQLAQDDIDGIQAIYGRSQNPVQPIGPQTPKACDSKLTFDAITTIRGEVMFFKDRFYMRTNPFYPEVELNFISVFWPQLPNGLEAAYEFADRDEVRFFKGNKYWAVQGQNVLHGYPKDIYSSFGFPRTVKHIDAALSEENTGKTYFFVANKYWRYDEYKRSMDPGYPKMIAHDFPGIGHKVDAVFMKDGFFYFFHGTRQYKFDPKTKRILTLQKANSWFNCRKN
Sequence of MMP-9 (P50282 108-708): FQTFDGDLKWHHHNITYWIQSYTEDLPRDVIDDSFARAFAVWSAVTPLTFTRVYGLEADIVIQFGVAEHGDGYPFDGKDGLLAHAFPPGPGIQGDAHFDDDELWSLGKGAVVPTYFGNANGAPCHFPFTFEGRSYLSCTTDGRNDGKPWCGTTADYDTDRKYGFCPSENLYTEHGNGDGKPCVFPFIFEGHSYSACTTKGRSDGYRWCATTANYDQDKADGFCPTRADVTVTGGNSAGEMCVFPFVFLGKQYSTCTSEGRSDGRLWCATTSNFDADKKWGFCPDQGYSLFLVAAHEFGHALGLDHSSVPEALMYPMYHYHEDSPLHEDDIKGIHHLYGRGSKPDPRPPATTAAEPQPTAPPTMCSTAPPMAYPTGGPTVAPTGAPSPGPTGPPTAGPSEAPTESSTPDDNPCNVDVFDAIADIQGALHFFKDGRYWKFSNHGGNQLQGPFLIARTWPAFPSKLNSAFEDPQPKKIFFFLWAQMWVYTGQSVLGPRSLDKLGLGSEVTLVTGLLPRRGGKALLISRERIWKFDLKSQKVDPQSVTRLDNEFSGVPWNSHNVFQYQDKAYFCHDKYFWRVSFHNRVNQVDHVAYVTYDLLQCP

Compound `O=C(O)c1csc(CN(Cc2ccc(F)cc2)Cc2ccc(OCc3cccnc3)cc2)n1` [Compound 1, 2-({[(4-Fluorophenyl)methyl]({[4-(pyridin-3-ylmethoxy)phenyl]methyl})amino}methyl)-1,3-thiazole-4-carboxylic acid] has an IC50 ([1]; Table 2, read-out: MMP2 IC50) of 5.7 µM, an IC50 ([1]; read-out: IC50 on MMP2) of 5.7 µM and a CC50 at 48 h [2] of 25 µM. It also gave an inhibition at 1 µM [3, 7] of 25.9 ± 9.51%, an inhibition at 1 µM [3, 8] of 29.2 ± 38.7% and an inhibition at 100 µM [3, 7] of 58 ± 12.6%. For the same compound, the inhibition at 100 µM [3, 8] was 95.3 ± 8.17%, the “% inhibition MMP-9 (92 kDa)” value ([4]; 1 μM) was “No inhibition” and the “% inhibition MMP-9 (92 kDa)” value ([4]; 100 μM) was “No inhibition”. For the same compound, the inhibition at 1 µM ([5]; 1 μM, read-out: % inhibition MMP-13 (50 kDa)) was 54.4 ± 2.33%, the “% inhibition MMP-13 (50 kDa)” value ([5]; 100 μM) was “No inhibition” and the “myocardial IS (infarct size)” value ([6]; 1 μM and 10 μM, administered before ischemia and during reperfusion, result in words) was “reduced myocardial IS; also recorded: decreased infarct size significantly”. For the same compound, the “Infarct size as compared with DMSO control” value ([6]; 10 μM, isolated rat hearts, 30 min global ischemia, 120 min reperfusion, p<0.05) was “significantly decreased infarct size”.
